According to PubChem BioAssay (NCI):
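Briefly, cells in 96-well plates were exposed to five compound concentrations for 48 h, and endpoints were estimated by linear interpolation. GI50: concentration for 50% inhibition of growth. TGI: total growth inhibition.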

What was measured:
Test in all cases: NCI tumour cell line growth inhibition, 48 h
[1] = system: 786-0 renal
[2] = system: A498 renal
[3] = system: LOX IMVI melanoma
[4] = system: NCI-H23 lung
[5] = system: OVCAR-5 ovarian
[6] = system: SK-MEL-2 melanoma
[7] = system: SNB-75 CNS
[8] = system: SK-OV-3 ovarian

Structure (SMILES)	GI50 [1] [µM]	TGI [1] [µM]	GI50 [2] [µM]	GI50 [3] [µM]	TGI [3] [µM]	GI50 [4] [µM]	TGI [4] [µM]	GI50 [5] [µM]	TGI [5] [µM]	GI50 [6] [µM]	TGI [6] [µM]	GI50 [7] [µM]	TGI [7] [µM]	TGI [2] [µM]	TGI [8] [µM]	GI50 [8] [µM]
CCC[CH2][Sn]([CH2]CCC)([O]C(=O)C(N)CSC)[O]C(=O)C(N)CSC (configuration not stated)	8.14	21.8	3.91	7.17	26.3	2.75	13.1	15.7	35.6	2.78	8.79	10	31.6	–	–	–
NC(=S)N/N=C(\C(=O)Nc1cccc([N+](=O)[O-])c1)c1nc2ccc([N+](=O)[O-])cc2[nH]c1=O	–	> 100	–	–	> 100	–	> 100	–	> 100	–	> 100	–	> 100	> 100	> 100	–
COc1ccc2cc3[n+](cc2c1OC)CCc1cc(O)c(O)cc1-3	–	> 100	–	–	> 100	–	> 100	–	> 100	–	–	–	> 100	> 100	> 100	–
CSc1nc(NC(=O)O)c(N(C(C)=O)C(=O)O)c(=O)n1C	–	> 100	–	–	> 100	–	–	–	> 100	–	> 100	–	–	> 100	–	–
COc1cc(C(=O)C/C(CCC(=O)Nc2ccc(Cl)cc2C)=N/NC(=O)C(N)=O)ccc1O	–	> 100	–	–	> 100	–	> 100	–	> 100	–	> 100	–	–	> 100	> 100	–
CCCN1CN(C(C(=O)N[C@@H]2C(=O)N3C(C(=O)O)=C(C)CSC23)c2ccc(O)cc2)CSC1=S (some centres not stated)	–	> 100	–	–	> 100	–	> 100	–	> 100	–	> 100	–	> 100	> 100	> 100	–
CCCC(C)C[C@@H](C)CC(C)/C=C(\C)c1oc(=O)c(C)c(O)c1C (some centres not stated) (tested in a mixture with another compound)	–	29.5	–	–	31.6	–	–	–	17.5	–	22.8	–	28.3	–	–	–
C1CCN(C2OC3C(COC3N3CCCCC3)OC2OC2CCO[C@@H]2N2CCCCC2)CC1 (some centres not stated)	–	> 100	–	–	> 100	–	78.6	–	> 100	–	> 100	–	46.2	> 100	> 100	–
O=C(O)CC12C3C4C5C3C1C5C42 (configuration not stated)	–	> 100	–	–	> 100	–	> 100	–	> 100	–	> 100	–	> 100	> 100	> 100	–
COC1OC(C)C(O)CC1OS(=O)(=O)c1ccc(C)cc1 (configuration not stated)	–	> 100	–	–	> 100	–	> 100	–	> 100	–	> 100	–	> 100	> 100	> 100	–
CCCCc1ccc(-n2c3nc(=O)n(C)c(=O)c-3nc3ccccc32)cc1	–	32.1	–	–	–	–	8.19	–	32	–	24	–	30.3	32.7	> 100	–
NC1CCCCC1N.O=S(=O)([O-])CCCN1CCOCC1.O=S(=O)([O-])CCCN1CCOCC1.[Pt+4]	5.7	> 100	49	16.2	> 59.2	18.2	> 92.2	26	> 100	13.3	44.5	> 100	> 100	> 100	> 100	> 100
Cc1ccc(-c2nc(N)nc3c2nnn3Cc2cccc(CO[C@H]3CCOC3)n2)o1	> 100	> 100	69.9	> 100	> 100	> 100	> 100	> 100	> 100	> 100	> 100	41.5	> 100	> 100	> 100	> 100
CC[O-].CC[O-].O=C1C(c2ccccc2)=C([O-])c2ccccc21.O=C1C(c2ccccc2)=C([O-])c2ccccc21.[Ti+4]	> 100	> 100	–	> 100	> 100	> 100	> 100	> 100	> 100	> 100	> 100	> 100	> 100	–	> 100	> 100
Cc1ccc(NC(=O)CCC/C(CC(=O)c2ccc(Br)cc2)=N/NC(=O)CC#N)cc1	–	> 100	–	–	> 100	–	> 100	–	> 100	–	> 100	–	> 100	–	–	–
Cc1ccc(/C=C/C(=O)c2sc(-c3cccnc3)nc2C)cc1	–	> 100	–	–	> 100	–	> 100	–	> 100	–	> 100	–	–	> 100	> 100	–
O=c1[nH]c2c3ccccc3ccc2c2cc3c(cc12)OCO3	–	> 100	–	–	> 100	–	> 100	–	> 100	–	> 100	–	> 100	–	> 100	–
Cc1cc(C)nc(NS(=O)(=O)c2ccc(Nc3c4ccc(Cl)cc4nc4c(C(=O)Nc5ccc(S(=O)(=O)N=C(N)N)cc5)cccc34)cc2)n1	–	> 100	–	–	> 100	–	> 100	–	> 100	–	–	–	> 100	> 100	> 100	–
